Experimental data as given in patent EP4095134A1, “POLYCYCLIC COMPOUNDS FOR THE TREATMENT OF NEUROLOGICAL INDICATIONS” (UCL Business Ltd, priority 2021, dated 2022).

Target: T1, P2Y1 receptor (Homo sapiens, UniProt P47900)
T1 construct: expressed in transfected cells
Assay: P2Y1 IP1 accumulation HTRF assay, antagonism of agonist MRS2365 in stably transfected cells
Format: cell-based
Conditions: 5nM MRS2365, values rounded to nearest whole number
Description: IC50 values were determined using a cell based assay in stably transfected cells overexpressing the P2Y1 receptor. The assay system is a […] (HTRF) assay measuring accumulation of the intracellular messenger inositol monophosphate (IP1), generated intracellularly following activation of P2Y1. Activity of test compounds was generated by measuring antagonism of the increase in IP1 generated by addition of a selective P2Y1 agonist, MRS2365.
P2Y1 overexpressing cells were maintained in T175 flasks. The day before the assay, these cells were split and 20µl cell suspension transferred to each well of white 384-well assay plates at a cell density of 0.5x10^6 cells/mL. Plates were pulse centrifuged, then incubated overnight at 37°C / 5% CO2 prior to assay.
On day of assay, medium was removed from cells and replaced with stimulation buffer. Compounds were prepared in 100% DMSO for addition to cells using the Tecan D300e digital dispenser; compounds were prepared in cassette heads and added directly to wells in the required concentration range, to give a 10-point concentration response curve from 10µM with semi-log dilutions and a final DMSO concentration of 0.1%. Positive control antagonist curves with standard compounds were included on each plate. Plates were incubated with antagonists for 1 hour prior to addition of 5nM of the agonist MRS2365, dispensed using a Bravo liquid handler. Following agonist addition, plates were incubated for 60 minutes prior to assay. Both incubations were carried out at 37°C / 5% CO2.
For the assay, IP1 accumulation was quantified using the IPOne kit according to manufacturer's instructions. In short, a standard curve was prepared for IP 1 quantification, and cells lysed using kit lysis buffer. Assay reagents were added to the lysates, and incubated for 1 hour at room temperature without spinning or shaking. Plates were analysed on a BMG Pherastar plate reader, and IP1 signal generated in cells interpolated from the standard curve.
For all reported results, N is greater than or equal to 4. An individual N refers to one assay run with a single weighing of compound. A minimum of two assay runs were performed for each of two independent weighings of compound. Results (racemic)

T1 sequence (P47900 whole entry): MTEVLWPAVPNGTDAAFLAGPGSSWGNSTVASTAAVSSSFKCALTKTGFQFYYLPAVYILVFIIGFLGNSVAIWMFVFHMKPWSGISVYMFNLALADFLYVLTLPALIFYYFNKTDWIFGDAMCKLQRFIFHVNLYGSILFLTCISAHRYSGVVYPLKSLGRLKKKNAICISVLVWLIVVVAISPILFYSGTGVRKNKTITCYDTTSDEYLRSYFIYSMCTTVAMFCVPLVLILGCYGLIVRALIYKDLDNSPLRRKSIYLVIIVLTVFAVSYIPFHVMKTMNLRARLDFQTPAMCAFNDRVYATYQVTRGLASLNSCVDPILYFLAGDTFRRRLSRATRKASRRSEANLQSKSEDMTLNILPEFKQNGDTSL

| SMILES | IC50 (racemic, N >= 4) | IC50 (single enantiomer) |
| --- | --- | --- |
| Cc1ccc(NC(=O)Nc2ccc3c(c2)OC(F)(F)O3)c(Oc2ccc(F)cc2C2(C(F)(F)F)CCO2)n1 (racemic) [S41, 1-(2,2-difluorobenzo[d][1,3]dioxol-5-yl)-3-(2-(4-fluoro-2-(2-(trifluoromethyl)oxetan-2-yl)phenoxy)-6-methylpyridin-3-yl)urea] | 0.287 µM | – |
| Cc1ccc(NC(=O)Nc2ccc(Cl)cc2F)c(Oc2ccccc2C2(C(F)(F)F)CCO2)n1 (racemic) [S4, 1-(4-chloro-2-fluorophenyl)-3-(6-methyl-2-(2-(2-(trifluoromethyl)oxetan-2-yl)phenoxy)pyridin-3-yl)urea] | 0.043 µM | – |
| Cc1ncc(NC(=O)Nc2ccc(Cl)c(F)c2)c(Oc2ccccc2C2(C(F)(F)F)CCO2)n1 (racemic) [S64, 1-(4-chloro-3-fluorophenyl)-3-(2-methyl-4-(2-(2-(trifluoromethyl)oxetan-2-yl)phenoxy)pyrimidin-5-yl)urea] | 0.926 µM | – |
| Cc1ccc(NC(=O)Nc2ccc(Cl)cc2F)c(Oc2ccc(F)cc2C2(C(F)(F)F)CCO2)n1 (racemic) [S16, 1-(4-chloro-2-fluorophenyl)-3-(2-(4-fluoro-2-(2-(trifluoromethyl)oxetan-2-yl)phenoxy)-6-methylpyridin-3-yl)urea] | 0.108 µM | – |
| O=C(Nc1ccc(OC(F)(F)F)cc1)Nc1ccc(Cl)nc1Oc1ccccc1C1(C(F)(F)F)CCO1 (racemic) [S20, 1-(6-chloro-2-(2-(2-(trifluoromethyl)oxetan-2-yl)phenoxy)pyridin-3-yl)-3-(4-(trifluoromethoxy)phenyl)urea] | 0.125 µM | – |
| Cc1c(Oc2ncccc2NC(=O)Nc2ccc(OC(F)(F)F)cc2)cccc1N1CC(C)(C)C1 [S93] | 0.683 µM | – |
| O=C(Nc1ccc(OC(F)(F)F)cc1)Nc1cccnc1Oc1c(F)cccc1C1(C(F)(F)F)CCO1 (racemic) [S37] | 0.22 µM | – |
| O=C(Nc1ccc(Cl)cc1F)Nc1ccc(Cl)nc1Oc1ccccc1C1(C(F)(F)F)CCO1 (racemic) [S22, 1-(6-chloro-2-(2-(2-(trifluoromethyl)oxetan-2-yl)phenoxy)pyridin-3-yl)-3-(4-chloro-2-fluorophenyl)urea] | 0.141 µM | – |
| CC(C)c1ccc(NC(=O)Nc2cccnc2Oc2ccccc2[C@@]2(C(F)(F)F)CCO2)c(F)c1 [S124] | – | 0.02 µM |
| CC(C)(c1ccc(NC(=O)Nc2cccnc2Oc2ccccc2[C@@]2(C(F)(F)F)CCO2)cc1)C(F)(F)F [S101] | – | 0.048 µM |
| Cc1ccc(NC(=O)Nc2ccc(C(C)C)cc2)c(Oc2ccccc2C2(C(F)(F)F)CCO2)n1 (racemic) [S1] | 0.02 µM | – |
| Cc1ccc(NC(=O)Nc2ccc(OC(F)(F)F)cc2)c(Oc2ccc(F)cc2C2(C(F)(F)F)CCO2)n1 (racemic) [S19, 1-(2-(4-fluoro-2-(2-(trifluoromethyl)oxetan-2-yl)phenoxy)-6-methylpyridin-3-yl)-3-(4-(trifluoromethoxy)phenyl)urea] | 0.12 µM | – |
| O=C(Nc1ccc(OC(F)(F)F)cc1F)Nc1cccnc1Oc1ccc(F)cc1C1(C(F)(F)F)CCO1 (racemic) [S21, 1-(2-(4-fluoro-2-(2-(trifluoromethyl)oxetan-2-yl)phenoxy)pyridin-3-yl)-3-(2-fluoro-4-(trifluoromethoxy)phenyl)urea] | 0.14 µM | – |
| O=C(Nc1ccc(Cl)cc1F)Nc1cccnc1Oc1ccc(F)cc1C1(C(F)(F)F)CCO1 (racemic) [S30, 1-(4-chloro-2-fluorophenyl)-3-(2-(4-fluoro-2-(2-(trifluoromethyl)oxetan-2-yl)phenoxy)pyridin-3-yl)urea] | 0.166 µM | – |
| Cc1ccc(NC(=O)Nc2ccc(OC(F)(F)F)cc2F)c(Oc2ccccc2C2(C(F)(F)F)CCO2)n1 (racemic) [S2, 1-(2-fluoro-4-(trifluoromethoxy)phenyl)-3-(6-methyl-2-(2-(2-(trifluoromethyl)oxetan-2-yl)phenoxy)pyridin-3-yl)urea] | 0.033 µM | – |
| Cc1ccc(NC(=O)Nc2nc3ccc(C)nc3s2)c(Oc2ccc(F)cc2C2(C(F)(F)F)CCO2)n1 (racemic) [S34, 1-(2-(4-fluoro-2-(2-(trifluoromethyl)oxetan-2-yl)phenoxy)-6-methylpyridin-3-yl)-3-(5-methylthiazolo[5,4-b]pyridin-2-yl)urea] | 0.196 µM | – |

Other lines, results leading:

| IC50 (racemic, N >= 4) | IC50 (single enantiomer) | SMILES |
| --- | --- | --- |
| 1.01 µM | – | Fc1ccc(Oc2ncccc2Nc2nc3ccc(C(F)(F)F)cc3[nH]2)c(C2(C(F)(F)F)CCO2)c1 (racemic) [S97] |
| 1.48 µM | – | O=C(Nc1ccc(C(F)(F)F)nc1)Nc1cccnc1Oc1ccccc1C1(C(F)(F)F)CCO1 (racemic) [S71, 1-(2-(2-(2-(trifluoromethyl)oxetan-2-yl)phenoxy)pyridin-3-yl)-3-(6-(trifluoromethyl)pyridin-3-yl)urea] |
| 3.16 µM | – | Cn1c(C(F)(F)F)nc2ccc(NC(=O)Nc3cccnc3Oc3ccccc3C3(C(F)(F)F)CCO3)cc21 (racemic) [S78, 1-(1-methyl-2-(trifluoromethyl)-1H-benzo[d]imidazol-6-yl)-3-(2-(2-(2-(trifluoromethyl)oxetan-2-yl)phenoxy)pyridin-3-yl)urea] |
| 1.37 µM | – | Cc1c(Oc2ncccc2NC(=O)Nc2ccc(OC(F)(F)F)cc2)cccc1C1COC1 (racemic) [S91] |
| 6.05 µM | – | Cc1ccc(NC(=O)NC2CC3(C2)CC(F)(F)C3)c(Oc2ccc(F)cc2C2(C(F)(F)F)CCO2)n1 (racemic) [S86, 1-(6,6-difluorospiro[3.3]heptan-2-yl)-3-(2-(4-fluoro-2-(2-(trifluoromethyl)oxetan-2-yl)phenoxy)-6-methylpyridin-3-yl)urea] |
| – | 0.018 µM | Cc1ccc(NC(=O)Nc2ccc(C(C)C)cc2F)c(Oc2ccccc2[C@@]2(C(F)(F)F)CCO2)n1 (single isomer, unassigned) [S122] |
| 1.44 µM | – | Fc1ccc(Oc2ncccc2Nc2nc3ccc(OC(F)(F)F)cc3[nH]2)c(C2(C(F)(F)F)CCO2)c1 (racemic) [S121] |
| 1.06 µM | – | COc1cc(NC(=O)Nc2ccc(C)nc2Oc2ccccc2C2(C(F)(F)F)CCO2)ccc1F (racemic) [S67, 1-(4-fluoro-3-methoxyphenyl)-3-(6-methyl-2-(2-(2-(trifluoromethyl)oxetan-2-yl)phenoxy)pyridin-3-yl)urea] |
| – | 0.033 µM | Cc1ccc(NC(=O)Nc2ccc(C(C)C)cc2F)c(Oc2ccccc2[C@]2(C(F)(F)F)CCO2)n1 [S123] |
| 0.889 µM | – | Cc1c(Oc2ncccc2NC(=O)Nc2ccc(OC(F)(F)F)cc2)cccc1N1CCC1 (racemic) [S94] |
| 0.071 µM | – | CN1CCC1(c1ccccc1Oc1ncccc1NC(=O)Nc1ccc(OC(F)(F)F)cc1)C(F)(F)F (racemic) [S89] |
| 3.28 µM | – | O=C(Nc1ccccc1)Nc1cccnc1Oc1ccccc1C1(C(F)F)CCO1 (racemic) [S80] |
| – | 0.077 µM | CN1CC[C@]1(c1ccccc1Oc1ncccc1NC(=O)Nc1ccc(OC(F)(F)F)cc1)C(F)(F)F (racemic) [S105] |
| 1.49 µM | – | N#Cc1ccc(NC(=O)Nc2cccnc2Oc2ccccc2C2(C(F)(F)F)CCO2)c(F)c1 (racemic) [S72, 1-(4-cyano-2-fluorophenyl)-3-(2-(2-(2-(trifluoromethyl)oxetan-2-yl)phenoxy)pyridin-3-yl)urea] |
| 1.41 µM | – | Cc1ncc(NC(=O)Nc2ccc(Cl)cc2)c(Oc2ccccc2C2(C(F)(F)F)CCO2)n1 (racemic) [S69, 1-(4-chlorophenyl)-3-(2-methyl-4-(2-(2-(trifluoromethyl)oxetan-2-yl)phenoxy)pyrimidin-5-yl)urea] |
